According to patent EP1611148B1, “NOVEL NITRILE GLYCOSIDE USEFUL AS A BIO-ENHANCER OF DRUGS AND NUTRIENTS, PROCESS OF ITS ISOLATION FROM MORINGA OLEIFERA” (Council of Scientific and Industrial Research, priority 2003, dated 2004):

How the values were obtained:
M smegmatis (MC^2 155) = experiment: Bioactivity enhancement of antibiotics (killing efficiency, broth assay) against M smegmatis; settings: alone or with Niaziridin @ 1.0 µg/ml
B subtilis (MTCC121) = experiment: Bioactivity enhancement of antibiotics (killing efficiency, broth assay) against B subtilis; settings: alone or with Niaziridin @ 1.0 µg/ml
E.coli (CA8000) = settings: 6 ug/mL
[1] = anaesthetized rat, 1-10 mg/ kg I.V; cited from earlier work
C.albicans = experiment: Enhancement of anticandidial activity of clotrimazole (broth assay)
Staphylococcus aurues = settings: in combination with 5-Methoxy hydnocarpin (5-MHC); cited from earlier work
E.coli DH5α = experiment: Enhancement of bacterial transformation with pUC18 plasmid DNA, strain DH5α
Description: Overnight grown bacterial E.coli DH5α (Sambrook at al^28) cells were diluted to 10 folds in growth medium and treated with niaziridin @1-10µg/ml for 4 hours at 37°C in a shaker (200 RPM).
These log phase cells were then treated with calcium chloride to induce competence and then transformed with pUC18 plasmid DNA and plated on Luria agar plates containing 100µg/ml ampicillin.
The colonies thus appeared, on the plates for both treated and untreated cultures were scored.

[2] = system: M.tuberculosis H37Rv (ATCC 27294); experiment: Bioactivity enhancement of anti-tubercular drugs, radiometric BACTEC 460 TB system; format: cell-based, Mycobacterium tuberculosis
From the text: Since, the bioenhancer compound was able to enhance the activity of antibiotics against Gram (+) bacteria such as M.smegmatis, our subsequent interest was to test the compound against M.tuberculosis H37Rv (ATCC 27294) (Philipp et al 1996; Proc.Natl.Acad.Sci USA 93, 3132-3137), the causal organism of tuberculosis. To accomplish this we employed a radiometric assay using the BACTEC 460 TB system manufactured by M/S Becton Dickinson Ltd., USA. The antimycobacterial property of the drugs in combination with the bioenhancer was studied as per the recommended drug sensitivity protocol prescribed by the manufacturer (BACTEC 460 TB system: Product & Procedure Manual, MA 0029, 1996; Becton Dickinson Co., USA). Briefly the procedure is described below. • (a) The 12 B vials as provided by the manufacture were pre-tested prior to inoculation to establish the recommended CO2 atmosphere. […] After mixing thoroughly, 0.1 ml of this dilution was added into the control 12 B vial (without a drug). • (d) Biosafety precautions were taken as recommended by the manufacturer. • (e) Vials were tested daily in BACTEC 460 TB system for 12 days at approximately the same time each day as recommended by the manufacturer. The mycobacterial growth is expressed as Growth Index (GI) and compared to that of the control vials (antibiotic alone).

E.coli CA8000 = experiment: Enhancement of bacterial transformation with pUC18 plasmid DNA, strain CA8000
[3] = Bioavailability test using gastro-intestinal epithelium (U-tube); format: in vitro ADME, goat; settings: Vitamine B 12, in combination; Figure 3
From the text: Specially designed U-tubes of glass consisting of two components (opposite-L type) were used in which one open end of an L-shaped was tapered to fit within the end of the other L-tube (as described in US Patent # 6,410,059). The membrane of goat gut (initial part) was stretched and fixed to act as the barrier between the two ends such that by joining the two L-tubes, a U-tube was made. Sterile distilled water was then filled in both the sides to equal height/level. The antibiotic/compound was added to the donor tube (tapered) and through spectro-photometer, the transfer of molecule was observed using UV and visible absorption maxima of the respective molecules by taking the OD at defined wavelengths (264 nm for isoniazid).

[4] = system: Escherichia coli, CA 8000; experiment: Enhancement of adsorption of λ phage on bacteria; settings: cells pretreated with niaziridin @ 1 ug/ml
Description: Overnight grown bacterial culture (Escherichia coli, CA 8000) was divided into 5 ml of aliquot each in screw cap tubes. One of the tube with the bacterial culture was treated with niaziridin to a final concentration of 1µg/ml. Both the control and the treated tubes were incubated at 37°C for 4 hours. The cultures were then infected with λ phage (MOI=10) for 10minutes at 37°C (for adsorption) followed by centrifugation at 10000 RPM for 10 minutes at 4°C.
The supernatant and the pellets for both treated and untreated cultures were then compared for the phage titer by plating on top agar containing sensitive bacteria at different dilutions.

[5] = cells pre treated with niaziridin at 1 ug/ml
[6] = cells pre treated with niaziridin at 10 ug/ml

CC1(C)S[C@@H]2[C@H](NC(=O)[C@H](N)c3ccccc3)C(=O)N2[C@H]1C(=O)O [Amp, ampicillin]
Titre (M smegmatis (MC^2 155); Amp (0.1)): 1.0x10^8
Titre (B subtilis (MTCC121); Amp (0.01)): 2.9x10^8
% Survival (E.coli (CA8000)): 3.69%

niaziminin B
hypotensive and bradycardiac effect [1]: produced hypotensive and bradycardiac effect

Clc1ccccc1C(c1ccccc1)(c1ccccc1)n1ccnc1 [Clotrimazole, clotrimazole]
Cfu / ml at 36 h (C.albicans; clotrimazole 0.5ug/ml, alone or with Niaziridin 10ug/ml, 36 h): 23.6 x 10^5 Cfu / ml

niazinin B
hypotensive and bradycardiac effect [1]: produced hypotensive and bradycardiac effect

niaziminin A
hypotensive and bradycardiac effect [1]: produced hypotensive and bradycardiac effect

COc1ccc2cc3[n+](cc2c1OC)CCc1cc2c(cc1-3)OCO2 [berberine]
increase of antimicrobial activity of berberine (Staphylococcus aurues): 200 folds

CO[C@H]1/C=C/O[C@@]2(C)Oc3c(C)c(O)c4c(O)c(c(/C=N/N5CCN(C)CC5)c(O)c4c3C2=O)NC(=O)/C(C)=C\C=C\[C@H](C)[C@H](O)[C@@H](C)[C@@H](O)[C@@H](C)[C@H](OC(C)=O)[C@@H]1C [Rif, rifampicin]
Titre (M smegmatis (MC^2 155); Rif (0.05)): 1.3x10^7
Titre (B subtilis (MTCC121); Rif (0.05)): 2.1x10^8

CCn1cc(C(=O)O)c(=O)c2ccc(C)nc21 [Nal, nalidixic acid]
Titre (M smegmatis (MC^2 155); Nal (1.0)): 3.7x10^8
Titre (B subtilis (MTCC121); Nal (2.0)): 3.1x10^7

CCOC(=S)NCc1ccc(OC2OC(C)C(O)C(O)C2O)cc1 (centres unmarked) [niazimicin]
hypotensive and bradycardiac effect [1]: produced hypotensive and bradycardiac effect

CN(C)[C@@H]1C(=O)C(C(N)=O)=C(O)[C@@]2(O)C(=O)C3=C(O)c4c(O)cccc4[C@@](C)(O)[C@H]3C[C@@H]12 [Tet, tetracycline]
Titre (M smegmatis (MC^2 155); Tet (2.0)): 1.2x10^8
Titre (B subtilis (MTCC121); Tet (1.0)): 7.0x10^7

COC(=S)NCc1ccc(O[C@@H]2O[C@@H](C)[C@H](O)[C@@H](O)[C@H]2O)cc1 [niazinin A]
hypotensive and bradycardiac effect [1]: produced hypotensive and bradycardiac effect

niaziridin
Fold enhancement in DNA transformation (E.coli DH5α; [5]): 1.9 Fold
Titre (10^4) (E.coli DH5α; [5]): 16.0 10^4
Fold enhancement in DNA transformation (E.coli DH5α; [6]): 2.3 Fold
Titre (10^4) (E.coli DH5α; [6]): 20.0 10^4
enhancement of antimycobacterial activity of isoniazid (Growth Index) ([2]; in combination with isoniazid, Figure 2): able to enhance the antimycobacterial activity
enhancement of antimycobacterial activity of rifampicin (Growth Index) ([2]; in combination with rifampicin, Figure 1): able to enhance the antimycobacterial activity
Fold enhancement in DNA transformation (E.coli CA8000; [5]): 1.9 Fold
Titre (10^3) (E.coli CA8000; [5]): 8.30 10^3
Fold enhancement in DNA transformation (E.coli CA8000; [6]): 5.5 Fold
Titre (10^3) (E.coli CA8000; [6]): 24.0 10^3
uptake of nutrients through the intestinal gut membrane [3]: able to facilitate the uptake of nutrients like Vitamine B 12 through the intestinal gut membrane
enhancement of the antifungal activity of clotrimazole (C.albicans; in combination, observed only at 10ug/ml of the compound): 5-6 folds
Pellet (10^7pfu) ([4]; MOI 5): 7.7 10^7pfu
Supernatant (10^7pfu) ([4]; MOI 5): 7.7 10^7pfu
Pellet (10^7pfu) ([4]; MOI 10): 18.0 10^7pfu
Supernatant (10^7pfu) ([4]; MOI 10): 8.0 10^7pfu
